We go through 5 compounds from patent US10214542B2, “Modified macrocyclic compounds” (BAYER PHARMA AKTIENGESELLSCHAFT, priority 2015, dated 2019).

Each structure is given as a SMILES string. pIC50: −log10 of the molar value. Where only a bound is given, the exact number is not on record here.

The subject of one assay is HeLa cells. Description: Proliferation assay, crystal violet (Method 3). As to conditions: Homo sapiens, 96 h, 4 days, read-out: Inhibition of HeLa cell proliferation IC50. Type of assay: cell-based, human. The procedure: (§1) Cultivated tumour cells (HeLa, human cervical tumour cells, ATCC CCL-2; NCI-H460, human non-small cell lung carcinoma cells, ATCC HTB-177; DU 145, hormone-independent human prostate carcinoma cells, ATCC HTB-81; HeLa-MaTu-ADR, multidrug-resistant human cervical carcinoma cells, EPO-GmbH Berlin; Caco-2, human colorectal carcinoma cells, ATCC HTB-37; B16F10, mouse melanoma cells, ATCC CRL-6475) were plated at a density of 5,000 cells/well (DU145, HeLa-MaTu-ADR), 3,000 cells/well (NCI-H460, HeLa), 1,500 cells/well (Caco-2), or 1,000 cells/well (B16F10) in a 96-well multititer plate in 200 μL of their respective growth medium supplemented 10% fetal calf serum. After 24 hours, the cells of one plate (zero-point plate) were stained with crystal violet (see below), while the medium of the other plates was supplemented with the test substances in various concentrations (0 μM, as well as in the range of 0.0001-10 μM; the final concentration of the solvent dimethyl sulfoxide was adjusted to 0.1%) using a Hewlett-Packard HP D300 Digital Dispenser. The cells were incubated for 4 days in the presence of test substances. Cell proliferation was determined by staining the cells with crystal violet: the cells were fixed by adding 20 μl/measuring point of an 11% glutaric aldehyde solution for 15 minutes at room temperature. After three washing cycles of the fixed cells with water, the plates were dried at room temperature. The cells were stained by adding 100 μl/measuring point of a 0.1% crystal violet solution (pH 3.0). After three washing cycles of the stained cells with water, the plates were dried at room temperature. The dye was dissolved by adding 100 μl/measuring point of a 10% acetic acid solution. The extinction was determined by photometry at a wavelength of 595 nm. The change of cell number, in percent, was calculated by normalization of the measured values to the extinction values of the zero-point plate (=0%) and the extinction of the untreated (0 μm) cells (=100%). The IC50 values (inhibitory concentration at 50% of maximal effect) were determined by means of a 4 parameter fit.

In the next assay the test system is MOLM-13 cells. Description: Proliferation assay, Cell Titre-Glo viability (Method 3). Type of assay: cell-based. The settings on record: Homo sapiens; MOLM-13, 72-hour exposure; read-out: Inhibition of MOLM-13 cell proliferation IC50. The procedure:
(§2) A2780 human ovarian carcinoma cells (ECACC #93112519) and non-adherent MOLM-13 human acute myeloid leukemia cells (DSMZ ACC 554) were seeded at a density of 3,000 cell/well (A2780) or 5,000 cells/well (MOLM-13) in a 96-well multititer plate in 150 μL of growth medium supplemented 10% fetal calf serum. After 24 hours, cell viability of one plate (zero-point plate) was determined with the Cell Titre-Glo Luminescent Cell Viability Assay (Promega), while the medium of the other plates was supplemented with the test substances in various concentrations (0 μM, as well as in the range of 0.0001-10 μM; the final concentration of the solvent dimethyl sulfoxide was adjusted to 0.1%) using a Hewlett-Packard HP D300 Digital Dispenser. Cell viability was assessed after 72-hour exposure with the Cell
(§3) Titre-Glo Luminescent Cell Viability Assay (Promega). IC50 values (inhibitory concentration at 50% of maximal effect) were determined by means of a 4 parameter fit on measurement data which were normalized to vehicle (DMSO) treated cells (=100%) and measurement readings taken immediately before compound exposure (=0%).

The test system of another assay is Caco-2 cells. Description: Proliferation assay, crystal violet (Method 3). Format: cell-based. As to conditions: Homo sapiens, 96 h; Caco-2, 4 days; read-out: Inhibition of Caco-2 cell proliferation IC50. The method, then:
as §1

Another assay concerns NCI-H460 cells. Description: Proliferation assay, crystal violet (Method 3). Type of assay: cell-based. As to conditions: Homo sapiens, 96 h; NCI-H460, 4 days; read-out: Inhibition of NCI-H460 cell proliferation IC50. The procedure: as §1
A further assay deals with DU145 cells. The assay can be described thus: Proliferation assay, crystal violet (Method 3). Format: cell-based. As to conditions: Homo sapiens, DU-145, 96 h; DU145, 4 days; read-out: Inhibition of DU145 cell proliferation IC50. The method, then: as §1
The subject of a further assay is HeLa-MaTu-ADR cells. Description: Proliferation assay, crystal violet (Method 3). Format: cell-based. As to conditions: Homo sapiens, 96 h, 4 days, read-out: Inhibition of HeLa-MaTu-ADR cell proliferation IC50. The procedure:
as §1

The next assay relates to B16F10 cells. The assay can be described thus: Proliferation assay, crystal violet (Method 3). Type of assay: cell-based. The settings on record: Mus musculus, B16-F10, 96 h; B16F10, 4 days; read-out: Inhibition of B16F10 cell proliferation IC50. The method, then: as §1
In another assay the test system is A2780 cells. The assay can be described thus: Proliferation assay, Cell Titre-Glo viability (Method 3). The settings on record: Homo sapiens, A2780, 72 h, A2780, 72-hour exposure; read-out: Inhibition of A2780 cell proliferation IC50. Type of assay: cell-based, human. The procedure:
as §2, §3

For the compound `CS(=N)(=O)Cc1cc2cc(c1)OCCCCNc1cc(F)ccc1-c1nc(ncc1F)N2` (racemic) [Example 16, (rac)-16,20-difluoro-9-[(S-methylsulfonimidoyl)methyl]-2,3,4,5-tetrahydro-1H-17,13-(azeno)-7,11-(metheno)-6,1,12,14-benzoxatriazacyclononadecine], the pIC50 was 8.00 in the assay with HeLa cells; 8.39 with MOLM-13 cells; 7.92 in the assay on Caco-2 cells; 7.70 in the assay on NCI-H460 cells; 7.92 in the assay on DU145 cells; 7.89 with HeLa-MaTu-ADR cells. The pIC50 is 7.74 in the assay on B16F10 cells and 8.09 in the assay on A2780 cells.
Consider `CSCc1cc2nc(c1)Nc1cc(c(F)cn1)-c1ccc(F)cc1OCCCN2` [Example 1, 15,19-Difluoro-8-[(methylsulfanyl)methyl]-2,3,4,5-tetrahydro-11H-10,6-(azeno)-12,16-(metheno)-1,5,11,13-benzoxatriazacyclooctadecine], for which the pIC50 was 7.55 in the assay with HeLa cells; 8.10 in the assay with MOLM-13 cells; 7.44 in the assay on Caco-2 cells; 7.51 in the assay with NCI-H460 cells; 7.52 with DU145 cells; 7.55 in the assay on HeLa-MaTu-ADR cells. Moreover, the results for the pIC50 with B16F10 cells and with A2780 cells were 7.29 and 8.05, respectively.
Regarding `C[S+]([O-])Cc1cc2nc(c1)OCCCCCc1cc(F)ccc1-c1cc(ncc1F)N2` (racemic) [Example 19, (rac)-2,19-difluoro-9-[(methylsulfinyl)methyl]-14,15,16,17-tetrahydro-6H,13H-7,11-(azeno)-5,1-(metheno)-12,4,6-benzoxadiazacyclononadecine], the pIC50 is 6.00 in the assay with HeLa cells; 6.64 with MOLM-13 cells; 6.03 with Caco-2 cells; 5.94 in the assay with NCI-H460 cells; 6.03 in the assay with DU145 cells; 6.05 with HeLa-MaTu-ADR cells. For the same compound, the values for the pIC50 with B16F10 cells and in the assay with A2780 cells were 5.81 and < 7.00, respectively.
On to `CC(C)(C)OC(=O)N=S(C)(=O)Cc1cc2cc(c1)OCCCCNc1cc(F)ccc1-c1nc(ncc1F)N2` (racemic) [Example 15, (rac)-tert-butyl[{[16,20-difluoro-2,3,4,5-tetrahydro-1H,12H-13,17-(azeno)-11,7-(metheno)-6,1,12,14-benzoxatriazacyclononadecin-9-yl]methyl}(methyl)oxido-λ^6-sulfanylidene]carbamate], for which the pIC50 with HeLa cells is 7.48; with MOLM-13 cells it was 7.74; with Caco-2 cells, 7.32; in the assay with NCI-H460 cells it was 7.19; in the assay with DU145 cells, 7.40; with HeLa-MaTu-ADR cells it was 7.20. Besides, the pIC50 in the assay on B16F10 cells is 7.08; in the assay with A2780 cells it was 7.51.
Consider `CC(C)(C)OC(=O)N=S(C)(=O)Cc1cc2cc(c1)OCCCCSc1cc(F)ccc1-c1nc(ncc1F)N2` (racemic) [Example 21, (rac)-tert-butyl[{[16,20-difluoro-2,3,4,5-tetrahydro-12H-17,13-(azeno)-11,7-(metheno)-6,1,12,14-benzoxathiadiazacyclononadecin-9-yl]methyl}(methyl)oxido-λ^6-sulfanylidene]carbamate], for which the pIC50 in the assay with HeLa cells is 6.49; in the assay on MOLM-13 cells, 6.79; in the assay on Caco-2 cells, 6.61; in the assay with NCI-H460 cells, 6.32; in the assay with DU145 cells, 6.49; with HeLa-MaTu-ADR cells it was 6.48. The pIC50 in the assay on B16F10 cells is 6.27; in the assay with A2780 cells, < 7.00.
